Consider three compounds from paper PMC6627744, “A Tiny Change Makes a Big Difference in the Anti-Parasitic Activities of an HDAC Inhibitor” (International Journal of Molecular Sciences, 2019).

Read-outs that look alike come from different tables or passages of the source.

In assay [1] the test system is Pru type II strain of T. gondii. Also on record: method as in PMID 29414107. The conditions noted are these: read-out: IC50, inhibition of T. gondii type II strain; cited from earlier work.
Assay [2] has as its system RH type I strain of T. gondii. Description: Anti-T. gondii activity in infected HFF monolayers, type I strain. The assay is classed as cell-based, Toxoplasma gondii. The method, then: (§1) Confluent Human Foreskin Fibroblast (HFF) monolayers were infected with YFP-type I Rh kindly provided by B. Striepen or Tomato-type II Pru kindly provided by Professor N. Blanchard (Toulouse), at 5 × 10^4 parasites per well. They were then centrifuged for 30 s at 250 g and incubated for 30 min in a water bath at 37 °C to allow invasion. The wells were washed three times with PBS to eliminate extracellular parasites, and the drugs were added at concentrations ranging from 0.01 to 3.0 μM. After incubation for 24 h at 37 °C in a humidified atmosphere containing 5% CO2, the cells were fixed in 2.5% methanol-free formaldehyde (Tebu-bio, Le Perray-en-Yvelines, France)/PBS for 30 min at room temperature. Nuclei were stained with Hoechst 33258 (2 µg/mL, Molecular Probes) for 20 min and washed three times with water. The number of infected cells, i.e., cells harboring a parasitophorous vacuole (see supplementary data S3 for an example), and the number of parasites per vacuole were determined using an Olympus ScanR microscope (×20 objective) and ScanR software. The parasitic index in % compared to the control was calculated as follows: [Parasitic index (PI) = ((number of parasite/100 cells in treated wells) × (% of infected macrophage in treated well)/(number of parasite/100 cells in untreated wells) × (% of infected macrophage in untreated wells)) × 100].

In assay [3] the test system is Pru type II strain of T. gondii. Description: Anti-T. gondii activity in infected HFF monolayers, type II strain. The assay is classed as cell-based. The conditions noted are these: Toxoplasma gondii, 24 h, read-out: IC50, inhibition of T. gondii type II strain. The method, then:
as §1

The subject of assay [4] is RH type I strain of T. gondii. Also on record: method as in PMID 29414107. The conditions noted are these: cited from earlier work.
Assay [5] relates to HeLa cell nuclear extract, which contains mainly HDACs 1, 2, 6, and 8. Description: HDAC inhibition, HeLa nuclear extract (fluorometric HDAC assay kit). It counts as biochemical, human. The conditions noted are these: HeLa nuclear extracts; ratio of IC50 versus 363. On the procedure: (§2) The HDACi effect against HeLa nuclear extracts and recombinant proteins were measured using a fluorometric HDAC assay kit (Active Motif, La Hulpe, Belgium) according to the manufacturer’s instructions. Briefly, 30 μL of HeLa nuclear extract (Active Motif, Belgium) or HDAC 1 recombinant protein (Active Motif, Belgium) were mixed with 5 μL of a 10× compound and 10 μL of assay buffer. A positive control, containing trichostatin A at a final concentration of 2 μM, was analyzed for each independent experiment. A fluorogenic substrate (10 μL) was added, and the reaction was allowed to proceed for 30 min at room temperature and then stopped by the addition of a developer containing trichostatin A. The fluorescence was monitored after 30 min at excitation and emission wavelengths of 360 and 460 nm, respectively.

The target of the next assay is T1, recombinant HDAC1 enzyme (Homo sapiens, UniProt Q13547).
T1 construct: purchased Active Motif
T1 sequence (Q13547 whole entry): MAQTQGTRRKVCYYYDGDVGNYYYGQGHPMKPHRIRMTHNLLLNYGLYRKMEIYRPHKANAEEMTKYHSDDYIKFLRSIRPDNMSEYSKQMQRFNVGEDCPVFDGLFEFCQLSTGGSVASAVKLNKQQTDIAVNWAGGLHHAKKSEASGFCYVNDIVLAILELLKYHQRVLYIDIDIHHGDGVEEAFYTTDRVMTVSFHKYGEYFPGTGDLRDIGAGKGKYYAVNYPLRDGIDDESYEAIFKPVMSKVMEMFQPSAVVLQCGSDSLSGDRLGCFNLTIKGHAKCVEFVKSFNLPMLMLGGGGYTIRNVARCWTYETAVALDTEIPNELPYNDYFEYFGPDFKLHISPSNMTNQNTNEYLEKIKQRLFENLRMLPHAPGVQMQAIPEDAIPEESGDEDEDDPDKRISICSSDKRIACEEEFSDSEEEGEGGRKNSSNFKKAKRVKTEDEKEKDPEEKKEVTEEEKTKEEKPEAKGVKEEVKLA
Description: HDAC inhibition, recombinant HDAC1 (fluorometric HDAC assay kit). The conditions noted are these: Figure 1B. The assay is classed as biochemical. The method, then:
as §2

The test system of another assay is T. gondii. Description: Anti-T. gondii activity in infected HFF monolayers, strain not given. It counts as cell-based, Toxoplasma gondii. On the procedure: as §1

Regarding `COc1cccc(CC(=O)Nc2ccc(C(=O)NO)cc2)c1` [Compound 363, N-hydroxy-4-[2-(3-methoxyphenyl)acetamido]benzamide], the IC50 (in general, the point on the concentration scale where inhibition reaches its midpoint) in assay [1] was 2270 nM; in assay [2] (Toxoplasma gondii, type I (RH) strain, HFF, 24 h, read-out: IC50, inhibition of T. gondii type I strain) it was 153 nM; in assay [3], 853 nM; in assay [4] (type I strain, read-out: IC50, inhibition of T. gondii type I strain) it was 350 nM. The “fold higher susceptibility of type I strains than type II strains” value is reported as 5.5 fold in assay [2] (type I versus type II, this work) and 6 fold in assay [4] (type I versus type II).
Take `COc1ccccc1CNC(=O)c1ccc(C(=O)NO)cc1` [Compound D16, 1-N-hydroxy-4-N-[(2-methoxyphenyl)methyl]benzene-1,4-dicarboxamide]: in assay [5], the “fold less efficient in HDACi activity compared to 363” value is 13 fold. For the same compound, on recombinant HDAC1 enzyme, the “potency on deacetylase activity of recombinant HDAC1, compared to 363” value is given as “lower potency”. Moreover, the anti-parasitic activity entry in the assay on T. gondii (even at concentrations higher than 1000 nM, RH type I and Pru type II strains (Figure 1C)) was “No anti-parasitic activity”.
Consider `CCc1nc(N)nc(N)c1-c1ccc(Cl)cc1` [Pyrimethamine, reference compound], for which the half-maximal inhibitory concentration (IC50) in the assay on T. gondii (Toxoplasma gondii, positive control, strain not stated) turned out to be 453 nM.
